Experimental data published in US20210045385A1, “PYRIDAZINONE-SUBSTITUTED KETOXIMES AS HERBICIDES” (FMC Corporation, priority 2018, published 2021).

How the values were obtained:
Type in all cases: in vivo
[1] = system: barnyardgrass (Echinochloa crus-galli); experiment: Test D flooded paddy test, visual plant response rating; settings: 250 g ai/ha, scale 0 to 100 (0 no effect, 100 complete control), 13 to 15 d
Method in brief: (§1)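 Visual injury scores, 0 (no effect) to 100 (complete control), were assigned after 13 to 15 d in the greenhouse by comparison with controls. Test compounds had been added to paddy water covering soil by 3 cm at the 2-leaf stage.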

[2] = system: duck salad (Heteranthera limosa); experiment: as above; settings: 250 g ai/ha, scale 0 to 100 (0 no effect, 100 complete control), 13 to 15 d
Method in brief: as §1

[3] = system: rice (Oryza sativa); experiment: as above; settings: 250 g ai/ha, scale 0 to 100 (0 no effect, 100 complete control), 13 to 15 d
Method in brief: as §1

[4] = system: sedge umbrella (small-flower umbrella sedge, Cyperus difformis); experiment: as above; settings: 250 g ai/ha, scale 0 to 100 (0 no effect, 100 complete control), 13 to 15 d
Method in brief: as §1

[5] = system: blackgrass (Alopecurus myosuroides); experiment: Test C postemergence, visual plant response rating
Method in brief: (§2)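 Visual injury on a 0 (no effect) to 100 (complete control) scale versus untreated controls, scored approximately 10 d after treatment under greenhouse conditions. Treatments used surfactant-containing non-phytotoxic solvent formulations, sprayed onto loam–sand soil preemergence or onto one- to two-leaf plants 2–10 cm tall postemergence.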

[6] = system: galium (catchweed bedstraw, Galium aparine); experiment: Test C postemergence, visual plant response rating
Method in brief: as §2

[7] = system: Italian ryegrass (Lolium mutiflorum); experiment: Test C postemergence, visual plant response rating
Method in brief: as §2

[8] = system: wheat (Triticum aestivum); experiment: Test C postemergence, visual plant response rating
Method in brief: as §2

[9] = system: barnyardgrass (Echinochloa crus-galli); experiment: Test C postemergence, visual plant response rating
Method in brief: as §2

[10] = system: corn (Zea mays); experiment: Test C postemergence, visual plant response rating
Method in brief: as §2

[11] = system: foxtail, giant (giant foxtail, Setaria faberi); experiment: Test C postemergence, visual plant response rating
Method in brief: as §2

[12] = system: kochia (Bassia scoparia); experiment: Test C postemergence, visual plant response rating
Method in brief: as §2

[13] = system: pigweed (Amaranthus retroflexus); experiment: Test C postemergence, visual plant response rating
Method in brief: as §2

[14] = system: ragweed (common ragweed, Ambrosia artemisiifolia); experiment: Test C postemergence, visual plant response rating
Method in brief: as §2

[15] = system: Italian ryegrass (Lolium mutiflorum); experiment: Test C preemergence, visual plant response rating
Method in brief: as §2

[16] = system: barnyardgrass (Echinochloa crus-galli); experiment: Test C preemergence, visual plant response rating
Method in brief: as §2

[17] = system: foxtail, giant (giant foxtail, Setaria faberi); experiment: Test C preemergence, visual plant response rating
Method in brief: as §2

[18] = system: kochia (Bassia scoparia); experiment: Test C preemergence, visual plant response rating
Method in brief: as §2

[19] = system: pigweed (Amaranthus retroflexus); experiment: Test C preemergence, visual plant response rating
Method in brief: as §2

[20] = system: ragweed (common ragweed, Ambrosia artemisiifolia); experiment: Test C preemergence, visual plant response rating
Method in brief: as §2

[21] = Test C, postemergence, 31 g ai/ha
[22] = Test C, postemergence, 125 g ai/ha
[23] = Test C, 31 g ai/ha, 0 is no effect, 100 is complete control
[24] = Test C, 125 g ai/ha, 0 is no effect, 100 is complete control

SMILES | Plant response rating, Barnyardgrass (Flood) [1] | Plant response rating, Ducksalad (Flood) [2] | Plant response rating, Rice (Flood) [3] | Plant response rating, Sedge, Umbrella (Flood) [4] | Blackgrass plant response rating (0 to 100 scale) [5, 22] | Galium plant response rating (0 to 100 scale) [6, 22] | Ryegrass, Italian plant response rating (0 to 100 scale) ([7]; Postemergence, 31 g ai/ha) | Ryegrass, Italian plant response rating (0 to 100 scale) [7, 22] | Wheat plant response rating (0 to 100 scale) ([8]; Postemergence, 31 g ai/ha) | Wheat plant response rating (0 to 100 scale) [8, 22] | Barnyardgrass plant response rating (0 to 100 scale) [9, 22] | Corn plant response rating (0 to 100 scale) [10, 22] | Foxtail, Giant plant response rating (0 to 100 scale) [11, 22] | Kochia plant response rating (0 to 100 scale) [12, 22] | Pigweed plant response rating (0 to 100 scale) ([13]; Postemergence, 31 g ai/ha) | Pigweed plant response rating (0 to 100 scale) [13, 22] | Ragweed plant response rating (0 to 100 scale) ([14]; Postemergence, 31 g ai/ha) | Ragweed plant response rating (0 to 100 scale) [14, 22] | Ryegrass, Italian plant response rating (0 to 100 scale) [15, 23] | Barnyardgrass plant response rating (0 to 100 scale) [16, 23] | other results
CO/N=C(/c1cc(Cl)cc(Br)c1)c1c(O)c(C)nn(C)c1=O [Compound 156] | 0 | 30 | 0 | 30 | 30 | 100 | 100 | 100 | 0 | 50 | 70 | 20 | 90 | 100 | 70 | 80 | 90 | 100 | 100 | 0 | Blackgrass plant response rating (0 to 100 scale) [5, 21]: 30; Galium plant response rating (0 to 100 scale) [6, 21]: 100; Barnyardgrass plant response rating (0 to 100 scale) [9, 21]: 40; Corn plant response rating (0 to 100 scale) [10, 21]: 20; Foxtail, Giant plant response rating (0 to 100 scale) [11, 21]: 60; Kochia plant response rating (0 to 100 scale) [12, 21]: 80; Ryegrass, Italian plant response rating (0 to 100 scale) ([15]; 125 g ai/ha): 100; Barnyardgrass plant response rating (0 to 100 scale) ([16]; 125 g ai/ha): 80; Foxtail, Giant plant response rating (0 to 100 scale) ([17]; 125 g ai/ha): 100; Foxtail, Giant plant response rating (0 to 100 scale) [17, 23]: 50; Kochia plant response rating (0 to 100 scale) ([18]; 125 g ai/ha): 100; Kochia plant response rating (0 to 100 scale) [18, 23]: 40; Pigweed plant response rating (0 to 100 scale) ([19]; 125 g ai/ha): 80; Pigweed plant response rating (0 to 100 scale) [19, 23]: 40; Ragweed plant response rating (0 to 100 scale) ([20]; 125 g ai/ha): 100; Ragweed plant response rating (0 to 100 scale) [20, 23]: 100
CO/N=C(\c1c(O)c(C)nn(C)c1=O)c1cccc2cc(Cl)ccc12 [Compound 300] | 15 | 55 | 20 | 45 | 80 | 100 | 10 | 40 | 0 | 0 | 70 | 30 | 80 | 50 | 80 | 80 | 30 | 90 | 10 | 40 | Blackgrass plant response rating (0 to 100 scale) ([5]; Postemergence, 31 g ai/ha): 30; Galium plant response rating (0 to 100 scale) ([6]; Postemergence, 31 g ai/ha): 90; Barnyardgrass plant response rating (0 to 100 scale) ([9]; Postemergence, 31 g ai/ha): 30; Corn plant response rating (0 to 100 scale) ([10]; Postemergence, 31 g ai/ha): 10; Foxtail, Giant plant response rating (0 to 100 scale) ([11]; Postemergence, 31 g ai/ha): 60; Kochia plant response rating (0 to 100 scale) ([12]; Postemergence, 31 g ai/ha): 40; Ryegrass, Italian plant response rating (0 to 100 scale) [15, 24]: 70; Barnyardgrass plant response rating (0 to 100 scale) [16, 24]: 60; Foxtail, Giant plant response rating (0 to 100 scale) [17, 23]: 40; Foxtail, Giant plant response rating (0 to 100 scale) [17, 24]: 80; Kochia plant response rating (0 to 100 scale) [18, 23]: 0; Kochia plant response rating (0 to 100 scale) [18, 24]: 30; Pigweed plant response rating (0 to 100 scale) [19, 23]: 30; Pigweed plant response rating (0 to 100 scale) [19, 24]: 90; Ragweed plant response rating (0 to 100 scale) [20, 23]: 0; Ragweed plant response rating (0 to 100 scale) [20, 24]: 20
